For orientation: IC50 means the concentration at which inhibition is half-maximal. A lower IC50 goes with greater potency in that assay.

Assay [1] addresses T1, CDK9/CycT1 (Homo sapiens, UniProt P50750).
T1 construct: Recombinant full-length His-tagged human CDK9 and CycT1; His; purchased Invitrogen PV4131; host or cells: insect cells
Put plainly: CDK9/CycT1 kinase assay (Method 1a, TR-FRET). Type of assay: biochemical. The note with it: for IC50: Method 1a, 10 μM ATP; for Selectivity CDK9 over CDK2: IC50 (CDK2)/IC50 (CDK9): ratio of Method 2 to Method 1a values. The text has this: 1a. CDK9/CyeT1 Kinase Assay:
CDK9/CycT1-inhibitory activity of compounds of the present invention was quantified employing the CDK9/CycT1 TR-FRET assay as described in the following paragraphs:
(§1) Recombinant full-length His-tagged human CDK9 and CycT1, expressed in insect cells and purified by Ni-NTA affinity chromatography, were purchased from Invitrogen (Cat. No PV4131). As substrate for the kinase reaction biotinylated peptide biotin-Ttds-YISPLKSPYKISEG (C-terminus in amid form) was used which can be purchased e.g. form the company JERINI Peptide Technologies (Berlin, Germany). For the assay 50 nl of a 100 fold concentrated solution of the test compound in DMSO was pipetted into a black low volume 384 well microtiter plate (Greiner Bio-One, Frickenhausen, Germany), 2 μl of a solution of CDK9/CycT1 in aqueous assay buffer [50 mM Tris/HCl pH 8.0, 10 mM MgCl2, 1.0 mM dithiothreitol, 0.1 mM sodium ortho-vanadate, 0.01% (v/v) Nonidet-P40 (Sigma)] were added and the mixture was incubated for 15 min at 22° C. to allow pre-binding of the test compounds to the enzyme before the start of the kinase reaction. Then the kinase reaction was started by the addition of 3 μl of a solution of adenosine-tri-phosphate (ATP, 16.7 μM=>final conc. in the 5 μl assay volume is 10 μM) and substrate (1.67 μM=>final conc. in the 5 μl assay volume is 1 μM) in assay buffer and the resulting mixture was incubated for a reaction time of 25 min at 22° C. The concentration of CDK9/CycT1 was adjusted depending of the activity of the enzyme lot and was chosen appropriate to have the assay in the linear range, typical concentrations were in the range of 1 μg/mL. The reaction was stopped by the addition of 5 μl of a solution of TR-FRET detection reagents (0.2 μM streptavidine-XL665 [Cisbio Bioassays, Codolet, France] and 1 nM anti-RB(pSer807/pSer811)-antibody from BD Pharmingen [#558389] and 1.2 nM LANCE EU-W1024 labeled anti-mouse IgG antibody [Perkin-Elmer, product no. AD0077]) in an aqueous EDTA-solution (100 mM EDTA, 0.2% (w/v) bovine serum albumin in 100 mM HEPES/NaOH pH 7.0).
(§2) The resulting mixture was incubated 1 h at 22° C. to allow the formation of complex between the phosphorylated biotinylated peptide and the detection reagents. Subsequently the amount of phosphorylated substrate was evaluated by measurement of the resonance energy transfer from the Eu-chelate to the streptavidine-XL. Therefore, the fluorescence emissions at 620 nm and 665 nm after excitation at 350 nm was measured in a HTRF reader, e.g. a Rubystar (BMG Labtechnologies, Offenburg, Germany) or a Viewlux (Perkin-Elmer). The ratio of the emissions at 665 nm and at […] was taken as the measure for the amount of phosphorylated substrate. The data were normalised (enzyme reaction without inhibitor=0% inhibition, all other assay components but no enzyme=100% inhibition).
(In general: In TR-FRET formats the signal depends on donor and acceptor labels being close together.)

The target in assay [2] is T2, CDK2/CycE (Homo sapiens, UniProt P24941).
T2 construct: GST; purchased ProQinase GmbH (Freiburg, Germany); host or cells: insect cells (Sf9)
As to the kind of experiment: CDK2/CycE kinase assay (Method 2, TR-FRET). The note with it: Method 2, 10 μM ATP. Type of assay: biochemical.
Description: 2. CDK2/CycE Kinase Assay:
CDK2/CycE-inhibitory activity of compounds of the present invention was quantified employing the CDK2/CycE TR-FRET assay as described in the following paragraphs:
Recombinant fusion proteins of GST and human CDK2 and of GST and human CycE, expressed in insect cells (Sf9) and purified by Glutathion-Sepharose affinity chromatography, were purchased from ProQinase GmbH (Freiburg, Germany). As substrate for the kinase reaction biotinylated peptide biotin-Ttds-YISPLKSPYKISEG (C-terminus in amid form) was used which can be purchased e.g. form the company JERINI Peptide Technologies (Berlin, Germany).
as §1, with “For the” for “Recombinant full-length His-tagged human CDK9 and CycT1, expressed in insect cells and purified by Ni-NTA affinity chromatography, were purchased from Invitrogen (Cat. No PV4131). As substrate for the kinase reaction biotinylated peptide biotin-Ttds-YISPLKSPYKISEG (C-terminus in amid form) was used which can be purchased e.g. form the company JERINI Peptide Technologies (Berlin, Germany). For the”, “solution of CDK2/CycE in aqueous” for “solution of CDK9/CycT1 in aqueous”, “and substrate (1.25 μM=>final conc.” for “and substrate (1.67 μM=>final conc.”, “volume is 0.75 μM) in” for “volume is 1 μM) in”, “concentration of CDK2/CycE was adjusted” for “concentration of CDK9/CycT1 was adjusted”, “range of 130 ng/mL. The reaction” for “range of 1 μg/mL. The reaction”
as §2, with “TR-FRET” for “HTRF”

T1 sequence (P50750 whole entry): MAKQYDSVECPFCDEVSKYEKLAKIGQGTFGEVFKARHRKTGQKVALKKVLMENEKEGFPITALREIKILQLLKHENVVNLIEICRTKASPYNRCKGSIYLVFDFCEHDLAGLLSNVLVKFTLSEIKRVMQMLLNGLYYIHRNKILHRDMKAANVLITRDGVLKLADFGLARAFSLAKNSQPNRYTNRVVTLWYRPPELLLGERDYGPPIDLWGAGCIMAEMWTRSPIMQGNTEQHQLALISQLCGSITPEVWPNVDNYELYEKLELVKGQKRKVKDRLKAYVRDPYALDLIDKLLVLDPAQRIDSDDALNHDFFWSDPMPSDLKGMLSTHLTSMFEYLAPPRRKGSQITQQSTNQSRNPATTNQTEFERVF
T1 sequence (O60563 whole entry partner): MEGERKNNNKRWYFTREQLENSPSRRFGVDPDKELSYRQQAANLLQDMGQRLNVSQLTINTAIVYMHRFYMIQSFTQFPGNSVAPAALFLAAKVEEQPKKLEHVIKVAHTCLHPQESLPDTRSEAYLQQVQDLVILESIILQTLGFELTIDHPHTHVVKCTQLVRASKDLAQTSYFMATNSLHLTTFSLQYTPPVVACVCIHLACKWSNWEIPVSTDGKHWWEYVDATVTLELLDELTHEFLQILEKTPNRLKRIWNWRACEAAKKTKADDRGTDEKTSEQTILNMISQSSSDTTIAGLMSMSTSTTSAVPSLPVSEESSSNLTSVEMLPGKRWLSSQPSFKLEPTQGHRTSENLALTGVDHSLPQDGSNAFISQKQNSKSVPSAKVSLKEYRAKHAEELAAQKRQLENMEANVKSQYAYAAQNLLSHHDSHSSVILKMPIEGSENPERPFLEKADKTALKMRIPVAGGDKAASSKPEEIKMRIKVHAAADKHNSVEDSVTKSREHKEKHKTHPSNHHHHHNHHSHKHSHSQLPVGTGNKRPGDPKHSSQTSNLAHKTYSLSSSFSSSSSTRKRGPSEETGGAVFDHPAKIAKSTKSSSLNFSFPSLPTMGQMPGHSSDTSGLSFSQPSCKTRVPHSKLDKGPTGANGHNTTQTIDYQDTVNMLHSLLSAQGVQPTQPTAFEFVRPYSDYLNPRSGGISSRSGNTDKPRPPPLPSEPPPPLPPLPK

For `Cc1cc(CS(C)(=N)=O)cc(Nc2cc(-c3ccc(F)c4ccoc34)c(F)cn2)n1` (racemic) [Example 7, (rac)-5-Fluoro-4-(4-fluoro-1-benzofuran-7-yl)-N-{6-methyl-4-[(S-methylsulfonimidoyl)-methyl]pyridin-2-yl}pyridin-2-amine], the IC50 came to 2.1 nM in assay [1] and 39 nM in assay [2]. Also, the “Selectivity CDK9 over CDK2: IC50 (CDK2)/IC50 (CDK9)” value (“Selectivity CDK9 over CDK2: IC50” for short) in assay [1] stood at 19.

Regarding `CS(=O)(Cc1ccnc(Nc2cc(-c3ccc(F)c4ccoc34)c(F)cn2)c1)=NC(=O)NCC(F)(F)F` (racemic) [Example 13, (rac)-1-{[(2-{[5-Fluoro-4-(4-fluoro-1-benzofuran-7-yl)pyridin-2-yl]amino}pyridin-4-yl)methyl](methyl)oxido-λ^6-sulfanylidene}-3-(2,2,2-trifluoroethyl)urea], in assay [1], 2.6 nM corresponded to half-maximal inhibition (IC50) and the “Selectivity CDK9 over CDK2: IC50” value was determined as 108. Moreover, the midpoint of inhibition in assay [2], the IC50, lay at 280 nM.

Turning to `CCc1cc(CS(C)(=N)=O)cc(Nc2cc(-c3ccc(F)c4ccoc34)c(F)cn2)n1` (racemic) [Example 8, (rac)-N-{6-Ethyl-4-[(S-methylsulfonimidoyl)methyl]pyridin-2-yl}-5-fluoro-4-(4-fluoro-1-benzofuran-7-yl)pyridin-2-amine], in assay [2], the midpoint of inhibition, the IC50, lay at 14 nM.

Regarding `CS(=N)(=O)Cc1cc(F)nc(Nc2cc(-c3ccc(F)c4ccoc34)c(F)cn2)c1` (racemic) [Example 1, (rac)-5-Fluoro-4-(4-fluoro-1-benzofuran-7-yl)-N-{6-fluoro-4-[(S-methylsulfonimidoyl)methyl]pyridin-2-yl}pyridin-2-amine], in assay [1], the IC50 was 4 nM and the “Selectivity CDK9 over CDK2: IC50” value is 11. For the same compound, the IC50 in assay [2] was found to be 42 nM.

For the compound `CS(=N)(=O)Cc1cc(Nc2cc(-c3ccc(F)c4ccoc34)c(F)cn2)nc(C(F)(F)F)c1` (racemic) [Example 3, (rac)-5-Fluoro-4-(4-fluoro-1-benzofuran-7-yl)-N-{4-[(S-methylsulfonimidoyl)methyl]-6-(trifluoromethyl)pyridin-2-yl}pyridin-2-amine], the values for the IC50 in assay [1] and in assay [2] were 5.8 nM and 21 nM, respectively. The “Selectivity CDK9 over CDK2: IC50” value in assay [1] was found to be 3.6.

On to `CS(=O)(Cc1ccnc(Nc2cc(-c3ccc(F)c4ccoc34)c(F)cn2)c1)=NC#N` (racemic) [Example 9, (rac)-{[(2-{[5-fluoro-4-(4-fluoro-1-benzofuran-7-yl)pyridin-2-yl]amino}pyridin-4-yl)methyl](methyl)oxido-λ^6-sulfanylidene}cyanamide], for which, in assay [1], the IC50 is 2.6 nM and the “Selectivity CDK9 over CDK2: IC50” value turned out to be 56. The IC50 in assay [2] came to 146 nM.

Regarding `CS(=O)(Cc1cc(F)nc(Nc2cc(-c3ccc(F)c4ccoc34)c(F)cn2)c1)=NC(=O)C(F)(F)F` (racemic) [Example 2, (rac)-2,2,2-Trifluoro-N-{[(2-fluoro-6-{[5-fluoro-4-(4-fluoro-1-benzofuran-7-yl)pyridin-2-yl]amino}pyridin-4-yl)methyl](methyl)oxido-λ^6-sulfanylidene}acetamide], in assay [1], the IC50 is 7 nM and the “Selectivity CDK9 over CDK2: IC50” value was determined as 54. Moreover, the IC50 in assay [2] was determined as 380 nM.

On to `CS(=O)(Cc1cc(Nc2cc(-c3ccc(F)c4ccoc34)c(F)cn2)nc(C(F)(F)F)c1)=NC(=O)C(F)(F)F` (racemic) [Example 4, (rac)-2,2,2-Trifluoro-N-[{[2-{[5-fluoro-4-(4-fluoro-1-benzofuran-7-yl)pyridin-2-yl]amino}-6-(trifluoromethyl)pyridin-4-yl]methyl}(methyl)oxido-λ^6-sulfanylidene]acetamide], for which, in assay [1], inhibition was half-maximal at 19 nM (IC50) and the “Selectivity CDK9 over CDK2: IC50” value stood at 5.8. The same compound showed an IC50 in assay [2] of 110 nM.

Values taken from patent US9770445B2, “Sulfoximine substituted 5-fluoro-N-(pyridin-2-yl)pyridin-2-amine derivatives and their use as CDK9 kinase inhibitors” (BAYER PHARMA AKTIENGESELLSCHAFT, priority 2013, dated 2017).
